Results published in ChEMBL document CHEMBL4613277, “Improving the Potency of N-Aryl-2,5-dimethylpyrroles against Multidrug-Resistant and Intracellular Mycobacteria” (ACS Med Chem Lett, 2020).
Converted amounts (≈) assume the structure as drawn.

Columns and labels:
[1] = test system: Mycobacterium tuberculosis; test: Antimycobacterial activity against multidrug resistance Mycobacterium tuberculosis CCM11.1 assessed as reduction in bacterial growth incubated for 7 days by resazurin based assay; format: functional; conditions: CCM11.1, 168 h
[2] = test system: Mycobacterium tuberculosis; test: Antimycobacterial activity against multidrug resistance Mycobacterium tuberculosis CCM10.1 assessed as reduction in bacterial growth incubated for 7 days by resazurin based assay; format: functional; conditions: CCM10.1, 168 h

For `COc1ccc(-n2c(C)cc(CNC3CCCCC3)c2C)cc1`, the MIC [1] was 0.5 µg/mL (≈ 1.6 µM) and the MIC [2] was < 0.625 ng/mL.

Compound `Cc1cc(CN[C@H]2C[C@@H]3CC[C@H]2C3)c(C)n1-c1ccc(Cl)cc1` has an MIC [1] of 1 µg/mL (≈ 3.04 µM) and an MIC [2] of 2.5 ng/mL (≈ 0.0076 µM).

`Cc1cc(CNC2CCCCC2)c(C)n1-c1ccc(C(C)C)cc1` was tested, and the MIC [1] was 0.5 µg/mL (≈ 1.54 µM) and the MIC [2] was 1.25 ng/mL (≈ 0.00385 µM).

`Cc1cc(CNCC2CCCCC2)c(C)n1-c1ccc(Cl)cc1` was tested, and the MIC [1] was 0.12 µg/mL (≈ 0.363 µM) and the MIC [2] was < 0.625 ng/mL.
